Measured values taken from paper PMC6444592, “Citrullination of HP1γ chromodomain affects association with chromatin” (Epigenetics & Chromatin, 2019).

What was measured:
PADI4 = experiment: in vitro citrullination (deimination) assay of HP1γ; assay type: biochemical, human; conditions: with calcium; for citrullination by PADI4, in words: GST fusion proteins, anti-peptidyl-citrulline immunoblot, n = 3 (p values 0.002, 0.003, 0.008)
Procedure: For immunoblotting, cells were lysed in 2 × Laemmli buffer and sonicated in a water bath (Fisherbrand) for 3 min to shear genomic DNA, spun down at full speed in a microfuge for 15 min and incubated for 5 min at 95 °C. Proteins were resolved by SDS-PAGE, transferred to nitrocellulose membrane (Millipore) using wet transfer (transfer buffer: 192 mM glycine, 25 mM Tris.HCl pH8.8) and incubated in blocking solution (5% BSA in TBS containing 0.5% Tween-20 for citrulline sensitive antibodies and 5% non-fat milk powder in TBS containing 0.1% Tween-20 for all other antibodies) for 1 h at room temperature (RT). Membranes were incubated with primary antibody at 4 °C o/n and appropriate HRP-conjugated secondary antibody for 1 h at RT. Membranes were then incubated for enhanced chemiluminescence (ECL, Promega), and proteins were detected by exposure to X-ray film or using the ChemiDoc™ MP imaging system (Bio-Rad). Images were quantified using ImageJ analysis software. Primary antibodies diluted in blocking solution were used to detect citrullinated histone H3R2 (H3R2-Cit, Abcam ab176843 at 1:1000 dilution), HP1γ (Millipore 05-690 MAB clone 42s2 [16] at 1:1000 dilution), β-Tubulin (Abcam ab6046 at 1:1000 dilution) and peptidyl-citrulline (Millipore MABN328, clone F95 [48] at 1:1000 dilution). HRP-conjugated secondary antibodies diluted in blocking solution were used against mouse IgG (Dako, P0447 at 1:5000 dilution), rabbit IgG (Abcam, ab6721 at 1:20,000 dilution) and sheep IgG (Abcam, ab6747 at 1:5000 dilution).
In vitro deimination of GST-HP1 variants was carried out as described previously [22]. In vitro deimination assays were performed in the presence and absence of 100 ng H3(1–16) or H3K9me3 peptides as appropriate. Samples were resuspended in 1 × Laemmli buffer for immunoblot analysis.

H3K9me3(1–16) peptides [1] = experiment: peptide pulldown assay; assay type: binding; conditions: 300 mM NaCl HBS-EP; Coomassie gel; n = 3 (p values 0.021, 0.008; ns 0.181)
Procedure: H3K9me3 or unmethylated H3(1–16) peptides, linked to Dynabeads MyOne streptavidin T1 (Thermo Fisher Scientific), were used in pulldown assays with eluted GST-HP1 in HBS-EP (300 mM NaCl, 10 mM HEPES KOH pH 7.4, 5 mM EDTA and 0.2% NP-40). Pulldown assays were performed in 300 mM NaCl HBS-EP as previously described. Samples were resuspended in 2 × Laemmli buffer and resolved by SDS-PAGE followed by Coomassie-blue staining. Images were quantified using ImageJ software.

mESCs [2] = experiment: immunoprecipitation of endogenous HP1γ and anti-peptidyl-citrulline immunoblot; assay type: cell-based, mouse; conditions: −LIF 72 h versus +LIF; nuclear lysates; three replicates
Procedure: For immunoblotting, cells were lysed in 2 × Laemmli buffer and sonicated in a water bath (Fisherbrand) for 3 min to shear genomic DNA, spun down at full speed in a microfuge for 15 min and incubated for 5 min at 95 °C. Proteins were resolved by SDS-PAGE, transferred to nitrocellulose membrane (Millipore) using wet transfer (transfer buffer: 192 mM glycine, 25 mM Tris.HCl pH8.8) and incubated in blocking solution (5% BSA in TBS containing 0.5% Tween-20 for citrulline sensitive antibodies and 5% non-fat milk powder in TBS containing 0.1% Tween-20 for all other antibodies) for 1 h at room temperature (RT). Membranes were incubated with primary antibody at 4 °C o/n and appropriate HRP-conjugated secondary antibody for 1 h at RT. Membranes were then incubated for enhanced chemiluminescence (ECL, Promega), and proteins were detected by exposure to X-ray film or using the ChemiDoc™ MP imaging system (Bio-Rad). Images were quantified using ImageJ analysis software. Primary antibodies diluted in blocking solution were used to detect citrullinated histone H3R2 (H3R2-Cit, Abcam ab176843 at 1:1000 dilution), HP1γ (Millipore 05-690 MAB clone 42s2 [16] at 1:1000 dilution), β-Tubulin (Abcam ab6046 at 1:1000 dilution) and peptidyl-citrulline (Millipore MABN328, clone F95 [48] at 1:1000 dilution). […]

mESCs [3] = experiment: live-cell single-particle tracking, 13.5 ms, jump distance analysis; assay type: cell-based, mouse; conditions: for Diffusion coefficient, Bound / Diffusion coefficient, Diffusing / Percentage, Bound / Percentage, Diffusing: 13.5 ms
Procedure: Parental E14 mouse embryonic stem cell (mESC) line was profiled by transcriptome analysis, qPCR and potency assays and was routinely tested for mycoplasma contamination and tested negative. Cells were cultured in DMEM (Gibco) supplemented with 15% standard FCS (Gibco), 0.1 mM non-essential amino acids (Gibco), 1% penicillin/streptomycin, 2 mM L-glutamine (Gibco), 1 mM sodium pyruvate (Gibco), 0.1 mM β-mercaptoethanol (Life Technologies) and 10^6 units/l mLIF (ESGRO, Millipore). E14 cells were stored in incubators at 37 °C in 7.5% CO2 (100% humidity) and maintained in 0.1% gelatin coated 10-cm culture dishes with 1:6 passaging every 2 days. Media was changed on a daily basis. E14 ESCs expressing mouse mEos3.2–HaloTag-HP1 fusion proteins were generated by transfecting appropriate pSB7 plasmids into E14 cells using Lipofectamine 2000 transfection reagent (Invitrogen), followed by selection in 600 µg/ml geneticin (Life Technologies). After 2 weeks of geneticin selection, cells were sorted using a Sony SH800S cell sorter for the expression of mEos3.2. Differentiation of ESCs was induced by LIF withdrawal. ESCs cultured in complete ES cell media (+ LIF) were trypsinised and washed twice in 1x PBS to remove residual LIF, seeded into ES cell media without LIF and incubated for 24, 48 or 72 h.
An IX73 Olympus inverted microscope was used with circularly polarised laser beams aligned and focused at the back aperture of an Olympus 1.40 NA 100 × oil objective (Universal Plan Super Apochromat, 100 × , NA 1.40, UPLSAPO100XO/1.4). Continuous wavelength diode laser light sources used include a 561-nm (Cobolt, Jive 200, 200 mW) and a 405-nm laser (Stradus, Toptica, 405–100, 100 mW). Oblique angle illumination was achieved by aligning the laser off axis such that the emergent beam at the sample interface was near-collimated and incident at an angle slightly less than the critical angle θc ~ 67° for a glass/water interface. This generated a ~ 50 μm diameter excitation footprint. The power of the collimated beams at the back aperture of the microscope was 10 kW/cm^2 and 10–100 W/cm^2 for the 561-nm and 405-nm laser beams, respectively. The lasers were reflected by dichroic mirrors (Semrock, Di01-R405/488/561/635). The fluorescence emission was collected through the same objective and then further filtered using a combination of long-pass and band-pass filters (BLP01-561R and FF01-587/35 for 561 nm excitation). The emission signal was projected onto an EMCCD (Photometrics, Evolve 512 Delta) with an electron multiplication gain of 250 ADU/photon operating in a frame transfer mode.
mESCs expressing mEos3.2–HaloTag-tagged HP1γ were passaged 2 days before imaging onto 35-mm glass bottom dishes No 1.0 (MatTek Corporation P35G-1.0-14-C Case) in phenol red-free serum and LIF conditions, if not stated otherwise. Just before single-particle tracking (SPT) imaging experiments, cells were labelled with 0.5 nM HaloTag–JF549 ligand for at least 15 min, followed by two washes in PBS and a 30-min incubation at 37 °C in media, before imaging the cells in fresh phenol red-free serum and LIF conditions. Cells were under-labelled to prevent overlap of fluorophores during SPT. Using 561 nm excitation, fluorescence images were collected as movies of 10,000 frames at 13.5 ms or 1000 to 5000 frames at 500 ms exposure. For live-cell tracking, data were collected for three biological replicates on separate dishes and the average values compared.
Live-cell 13.5-ms single-molecule traces were analysed using software that detects single-molecule trajectories from SPT movies. Briefly, the code detected puncta positions in each image frame using a brightness-weighted centroid after applying a band-pass filter to remove low-frequency background and high-frequency noise from the image data. To track the HP1 single molecules, only fluorescent puncta smaller than 3 pixels and with a signal to noise greater than 8 were analysed. […]

H3K9me3(1–16) peptides [4] = experiment: bio-layer interferometry (BLI); assay type: binding; conditions: 20 mM Hepes KOH pH 7.2, 70 mM KCl, GST fusion, association 120 s, dissociation 120 s, WT 28.0 μM, R38/9K 25.5 μM, R38/9A 28.3 μM and lower concentrations
Procedure: Recombinant mouse full-length HP1 wildtype and mutant proteins were expressed in (as GST fusion proteins), and purified from, Escherichia coli as described. Proteins were concentrated using Amicon Ultra centrifugation filters with a 30 kDa cutoff (Millipore), washed into binding buffer (20 mM Hepes KOH pH 7.2, 70 mM KCl, 1 mM DTT, 0.1% Tween-20, 5% glycerol). Protein concentrations were determined by Bradford protein assay against a BSA standard, and purity was verified by SDS-PAGE followed by Coomassie-blue staining. Real-time binding assays of GST-HP1γ were performed using the BLItz® system (ForteBio) in binding buffer (+ 0.1% BSA). Biotinylated H3(1–16) peptides (NH2-[…](me3)STGGKAP-Biotin) were immobilised to Dip and Read High Precision Streptavidin (SAX) Biosensors (ForteBio), and kinetics for a range of protein concentrations were measured under advanced kinetics settings (1. initial baseline measuring buffer only: 30 s, 2. loading of peptides onto sensors: 120 s, 3. effective baseline measurement: 30 s, 4. association of GST-HP1γ proteins: 120 s, 5. dissociation of GST-HP1γ proteins: 120 s). The data were normalised to the effective baseline signal by subtracting the average baseline value (150–180 s) from each data point (150–420 s). […] Raw data are summarised in Additional file 3: Table S1.

R39K: HP1γ with R39 substituted with lysine
citrullination by PADI4, in words (PADI4): abolished

heterochromatin protein 1 gamma [HP1γ]
binding in pulldown, in words (H3K9me3(1–16) peptides [1]): specifically binds to H3K9me3 peptides
citrullination by PADI4, in words (PADI4): PADI4 citrullinates HP1γ in vitro
citrullination of endogenous HP1γ in differentiating mESCs (mESCs [2]): significantly less citrullinated in differentiating mESCs

HP1γI165K: chromoshadow domain (CSD) mutant HP1γI165K, which prevents dimerisation of HP1γ [reference compound]
Diffusion coefficient, Bound (mESCs [3]; +LIF, replicate i): 0.081 µm2s-1
Diffusion coefficient, Diffusing (mESCs [3]; +LIF, replicate i): 1.500 µm2s-1
Percentage, Bound (mESCs [3]; +LIF, replicate i): 32.7%
Percentage, Diffusing (mESCs [3]; +LIF, replicate i): 67.3%
Diffusion coefficient, Bound (mESCs [3]; +LIF, replicate ii): 0.100 µm2s-1
Diffusion coefficient, Diffusing (mESCs [3]; +LIF, replicate ii): 1.485 µm2s-1
Percentage, Bound (mESCs [3]; +LIF, replicate ii): 20.9%
Percentage, Diffusing (mESCs [3]; +LIF, replicate ii): 79.1%
Diffusion coefficient, Bound (mESCs [3]; +LIF, replicate iii): 0.00228 µm2s-1
Diffusion coefficient, Diffusing (mESCs [3]; +LIF, replicate iii): 1.500 µm2s-1
Percentage, Bound (mESCs [3]; +LIF, replicate iii): 0.4%
Percentage, Diffusing (mESCs [3]; +LIF, replicate iii): 99.6%
Diffusion coefficient, Bound (mESCs [3]; +LIF, replicate iv): 0.023 µm2s-1
Diffusion coefficient, Diffusing (mESCs [3]; +LIF, replicate iv): 1.500 µm2s-1
Percentage, Bound (mESCs [3]; +LIF, replicate iv): 4%
Percentage, Diffusing (mESCs [3]; +LIF, replicate iv): 96%
diffusion coefficient of bound molecules, in words (mESCs [3]; mESCs, n = 4–5): remained unchanged
diffusion of diffusing molecules versus wildtype (mESCs [3]; mESCs, n = 4–5, p value: 0.0001): moved significantly more quickly than wildtype molecules
percentages of molecules within diffusing and bound fraction, significance versus WT (mESCs [3]; n = 4–5, p value > 0.165): ns.
Diffusion coefficient, Diffusing (mESCs [3]; −LIF, replicate i): 1.101 µm2s-1
Percentage, Bound (mESCs [3]; −LIF, replicate i): 10%
Percentage, Diffusing (mESCs [3]; −LIF, replicate i): 90%
Diffusion coefficient, Bound (mESCs [3]; −LIF, replicate ii): 0.098 µm2s-1
Diffusion coefficient, Diffusing (mESCs [3]; −LIF, replicate ii): 1.500 µm2s-1
Percentage, Bound (mESCs [3]; −LIF, replicate ii): 16.6%
Percentage, Diffusing (mESCs [3]; −LIF, replicate ii): 83.4%

HP1γR38/9K: HP1γ with both R38 and R39 mutated to lysine
binding in pulldown, in words (H3K9me3(1–16) peptides [1]): maintained binding to H3K9me3 peptides
BLI binding, in words (H3K9me3(1–16) peptides [4]): binds H3K9me3 peptides with similar affinity to the WT protein
BLI binding, in words (H3K9me3(1–16) peptides [4]; listed as R38/9K): maintained binding to H3K9me3 peptides
enhancement of citrullination by H3K9me3 peptides, in words (PADI4; H3K9me3(1–16) peptides, mutant used as substrate): abolished
